Results published in patent publication US6414014B1 (Bristol-Myers Squibb Company, priority 1992, dated 2002).

Experiments:
[1] = system: patients suffering from ovarian carcinoma; assay: Multi-center, randomized comparative study of taxol in platinum pretreated ovarian carcinoma: objective response; format: in vivo
Description: The high degree of success, greater than 10% of objective response, to treatment by patients suffering from drug refractory ovarian carcinoma is truly astonishing, since responses to drug refractory ovarian carcinoma are extremely uncommon. While experimental data is provided herein for the successful treatment of ovarian carcinoma with taxol using the present treatment protocol, it is to be understood that the treatment protocol can be used for the treatment of other forms of cancer with taxol, such as melanoma, renal cell carcinoma, and other cancers which are treatable with taxol.
(§1) Responses were evaluated every two cycles.
Patients with ovarian carcinoma included in the study had been treated with and were unresponsive to a minimum of one but no more than two platinum-containing chemotherapy regimens, and were required to have shown progression during or relapse after their last regimen of chemotherapy. Patients were treated every 21 days if allowed by toxicity.
While an emulsion of taxol in polyethoxylated caster oil in dehydrated alcohol is utilized as a vehicle in a preferred embodiment, it is contemplated that other pharmaceutically acceptable vehicles for taxol may be used.
This procedure enables the accurate accessment of the patient receiving the taxol.
Patients ranged between 18 and 75 years in age with an Eastern Cooperative Oncology Group, ECOG, performance status of 0, 1, or 2, and had to have recovered from all toxicities of previous treatment. Further, no prior chemotherapy or radiotherapy were allowed within four weeks prior to entry into the study (patients were also not entered into the study if there had been less than six weeks since prior mitomycin, nitrosureas, or high-dose carboplatin therapy). An adequate baseline bone marrow function was required, which was defined as a granulocyte count ≧2,000 cells/cmm and a platelet count ≧100,000 cells/cmm. Adequate hepatic and renal functions were required with normal hepatic function defined as total billirubin ≦1.5 times upper normal value and normal renal function defined as serum creatinine ≦1.5 times upper normal value. Patients with abdominal adenocarcinoma, a previous history of a trial or ventricular arrhythmias, congestive heart failure, myocardial infarction within six months preceding randomization, complete bowel obtruction, a pre-existing neuropathy <WHO grade 2, active infection, prior allergic reaction to drugs containing Cremaphor, or other serious medical condition were excluded from this study.
(§2) Eligible patients were randomized according to a computerized randomization log. During therapy, hematology data (hemoglobin, white blood cell count, granulocytes and platelets) were collected, and toxicity assessments were continuously made. After each cycle, a physical history update was recorded, as well as tumor measurement, performance status (ECOG), hematology, chemistry (serum creatinine, billirubin, alkaline phosphatase, (SLOT (AST), CA125) and a toxicity assessment. A quality of life assessment was also made after each cycle, and every two months until six months after treatment stopped.

[2] = Hematologic toxicity (myelotoxicity) in the randomized taxol study, weekly blood counts; format: in vivo, patients
Experimental: as §1, §2
White blood cell (WBC) counts, absolute neutrophil count (ANC), platelet counts, and hemoglobin (Hb) concentration were the primary variables used to evaluate treatment related myelosuppression. The World Health Orgination, WHO, grades of nadir for the entire study population of 157 patients during course 1 are presented in the table below. Leukopenia and neutropenia were the most frequent and severe hemotologic adverse effects observed during the first couse of treatment. 53% (83/156) of the patients had Grade III or IV neutropenia, while 39% (61/157) had Grade III or IV leukopenia.

[3] = system: drug-refractory ovarian cancer; conditions: in vivo; cited from earlier work
[4] = TOTAL, all four arms, n = 157, course 1
[5] = arm 135/3 (mg/m^2/infusion hours), n = 39, course 1
[6] = arm 135/24 (mg/m^2/infusion hours), n = 44, course 1
[7] = arm 175/3 (mg/m^2/infusion hours), n = 29, course 1
[8] = arm 175/4 (mg/m^2/infusion hours), n = 45, course 1

Question: What does the source list for `CC(=O)O[C@H]1C(=O)[C@@]2(C)[C@H]([C@H](OC(=O)c3ccccc3)[C@]3(O)C[C@H](OC(=O)[C@H](O)[C@@H](NC(=O)c4ccccc4)c4ccccc4)C(C)=C1C3(C)C)[C@]1(OC(C)=O)CO[C@@H]1C[C@@H]2O` [taxol]?
Answer: stabilization of disease, patients with an early relapse after platinum [1]: 53%; response to taxol in patients who had progressed on previous platinum containing chemotherapy ([1]; 3 out of 46): 7%; response to taxol in patients considered resistant to platinum therapy ([1]; 14/114, progression on therapy or relapse within six months): 13%; objective response rate, not evaluated and unevaluable patients excluded ([1]; 22/135 patients): 16%; stabilization of disease, patients with disease truly refractory to platinum ([1]; 24/46): 52%; response to taxol, platinum resistant patients with one previous regimen of platinum ([1]; in vivo): 15%; response to taxol, platinum resistant patients with two previous regimens of platinum ([1]; in vivo): 10%; patients with stable disease continued on taxol ([1]; of 157 patients): 51 patients; patients with grade 4 neutropenia ([2]; 3-hour infusion, 8/68, course 1): 12%; patients with grade 4 neutropenia ([2]; 24-hour taxol infusion, 51/88, course 1): 58%; AMC Count, WHO grade 0 nadir, patients [2, 4]: 37 (24) n (%); AMC Count, WHO grade I nadir, patients [2, 4]: 13 (8) n (%); AMC Count, WHO grade II nadir, patients [2, 4]: 23 (15) n (%); AMC Count, WHO grade III nadir, patients [2, 4]: 24 (15) n (%); AMC Count, WHO grade IV nadir, patients [2, 4]: 59 (38) n (%); Platelet Count, WHO grade 0 nadir, patients [2, 4]: 147 (94) n (%); Platelet Count, WHO grade I nadir, patients [2, 4]: 6 (4) n (%); Platelet Count, WHO grade II nadir, patients [2, 4]: 2 (1) n (%); Platelet Count, WHO grade III nadir, patients [2, 4]: 1 (1) n (%); Platelet Count, WHO grade IV nadir, patients [2, 4]: 1 (1) n (%); WBC Count, WHO grade 0 nadir, patients [2, 4]: 31 (20) n (%); WBC Count, WHO grade I nadir, patients [2, 4]: 29 (18) n (%); WBC Count, WHO grade II nadir, patients [2, 4]: 36 (23) n (%); WBC Count, WHO grade III nadir, patients [2, 4]: 50 (32) n (%); WBC Count, WHO grade IV nadir, patients [2, 4]: 11 (7) n (%); patients with severe neutropenia (WHO Grade III and IV) during at least one course ([2]; all arms): 63%; AMC Count, WHO grade 0 nadir, patients [2, 5]: 18 (46) n (%); AMC Count, WHO grade I nadir, patients [2, 5]: 8 (21) n (%); AMC Count, WHO grade II nadir, patients [2, 5]: 8 (21) n (%); AMC Count, WHO grade III nadir, patients [2, 5]: 4 (10) n (%); AMC Count, WHO grade IV nadir, patients [2, 5]: 1 (3) n (%); Platelet Count, WHO grade 0 nadir, patients [2, 5]: 36 (92) n (%); Platelet Count, WHO grade I nadir, patients [2, 5]: 2 (5) n (%); Platelet Count, WHO grade II nadir, patients [2, 5]: 1 (3) n (%); Platelet Count, WHO grade III nadir, patients [2, 5]: 0 n (%); Platelet Count, WHO grade IV nadir, patients [2, 5]: 0 n (%); WBC Count, WHO grade 0 nadir, patients [2, 5]: 15 (38) n (%); WBC Count, WHO grade I nadir, patients [2, 5]: 13 (33) n (%); WBC Count, WHO grade II nadir, patients [2, 5]: 7 (18) n (%); WBC Count, WHO grade III nadir, patients [2, 5]: 3 (8) n (%); WBC Count, WHO grade IV nadir, patients [2, 5]: 1(3) n (%); AMC Count, WHO grade 0 nadir, patients [2, 6]: 6 (14) n (%); AMC Count, WHO grade I nadir, patients [2, 6]: 2 (15) n (%); AMC Count, WHO grade II nadir, patients [2, 6]: 7 (16) n (%); AMC Count, WHO grade III nadir, patients [2, 6]: 6 (14) n (%); AMC Count, WHO grade IV nadir, patients [2, 6]: 23 (52) n (%); Platelet Count, WHO grade 0 nadir, patients [2, 6]: 43 (98) n (%); Platelet Count, WHO grade I nadir, patients [2, 6]: 1 (2) n (%); Platelet Count, WHO grade II nadir, patients [2, 6]: 0 n (%); Platelet Count, WHO grade III nadir, patients [2, 6]: 0 n (%); Platelet Count, WHO grade IV nadir, patients [2, 6]: 0 n (%); WBC Count, WHO grade 0 nadir, patients [2, 6]: 4 (9) n (%); WBC Count, WHO grade I nadir, patients [2, 6]: 5 (11) n (%); WBC Count, WHO grade II nadir, patients [2, 6]: 11 (25) n (%); WBC Count, WHO grade III nadir, patients [2, 6]: 20 (46) n (%); WBC Count, WHO grade IV nadir, patients [2, 6]: 4 (9) n (%); AMC Count, WHO grade 0 nadir, patients [2, 7]: 11 (38) n (%); AMC Count, WHO grade I nadir, patients [2, 7]: 2 (7) n (%); AMC Count, WHO grade II nadir, patients [2, 7]: 3 (10) n (%); AMC Count, WHO grade III nadir, patients [2, 7]: 6 (21) n (%); AMC Count, WHO grade IV nadir, patients [2, 7]: 7 (24) n (%); Platelet Count, WHO grade 0 nadir, patients [2, 7]: 29 (100) n (%); Platelet Count, WHO grade I nadir, patients [2, 7]: 0 n (%); Platelet Count, WHO grade II nadir, patients [2, 7]: 0 n (%); Platelet Count, WHO grade III nadir, patients [2, 7]: 0 n (%); Platelet Count, WHO grade IV nadir, patients [2, 7]: 0 n (%); WBC Count, WHO grade 0 nadir, patients [2, 7]: 11 (38) n (%); WBC Count, WHO grade I nadir, patients [2, 7]: 6 (21) n (%); WBC Count, WHO grade II nadir, patients [2, 7]: 7 (24) n (%); WBC Count, WHO grade III nadir, patients [2, 7]: 5 (17) n (%); WBC Count, WHO grade IV nadir, patients [2, 7]: 0 — n (%); AMC Count, WHO grade 0 nadir, patients [2, 8]: 2 (5) n (%); AMC Count, WHO grade I nadir, patients [2, 8]: 1 (2) n (%); AMC Count, WHO grade II nadir, patients [2, 8]: 5 (11) n (%); AMC Count, WHO grade III nadir, patients [2, 8]: 8 (18) n (%); AMC Count, WHO grade IV nadir, patients [2, 8]: 28 (63) n (%); Platelet Count, WHO grade 0 nadir, patients [2, 8]: 39 (87) n (%); Platelet Count, WHO grade I nadir, patients [2, 8]: 3 (7) n (%); Platelet Count, WHO grade II nadir, patients [2, 8]: 1 (2) n (%); Platelet Count, WHO grade III nadir, patients [2, 8]: 1 (2) n (%); Platelet Count, WHO grade IV nadir, patients [2, 8]: 1 (2) n (%); WBC Count, WHO grade 0 nadir, patients [2, 8]: 1 (2) n (%); WBC Count, WHO grade I nadir, patients [2, 8]: 5 (11) n (%); WBC Count, WHO grade II nadir, patients [2, 8]: 11 (25) n (%); WBC Count, WHO grade III nadir, patients [2, 8]: 22 (49) n (%); WBC Count, WHO grade IV nadir, patients [2, 8]: 6 (13) n (%); severe leukopenia (grade 3 and grade 4 pooled), 24-hour versus 3-hour infusion ([2]; course 1): more frequently; patients with Grade III or IV leukopenia ([2]; course 1, 61/157, all arms): 39%; patients with Grade III or IV neutropenia ([2]; course 1, 83/156, all arms): 53%; patients with severe thrombocytopenia ([2]; course 1, two patients, all arms): 1%; incidence of severe neutropenia ([2]; high dose arms, 55/74): 74%; incidence of severe neutropenia ([2]; long-term infusion arms): 85%; anemia of any grade in patients with normal baseline Hb values ([2]; long-term infusion, 26/55): 47%; incidence of severe neutropenia ([2]; low dose arms, 43/83): 52%; anemia of any grade in patients with normal baseline Hb values ([2]; short-term infusion): 28%; incidence of severe neutropenia ([2]; short-term infusion arms): 32%; activity against drug-refractory ovarian cancer [3]: active agent
